Patent US9440982B2 (Eolas Therapeutics, Inc., priority 2012, dated 2016)
Like-named read-outs stand apart in the source and are kept apart here.

Legend:
OX1 = target: T1, OX1 (Homo sapiens, UniProt O43613); assay: Orexin receptor cell-based functional assay, [Ca2+]i by FLIPR, CHO-OX1 cells
T1 construct: expressed in transfected cells; host or cells: CHO (CHO-OX1, kept under selection antibiotic)
T1 sequence (O43613 1-425): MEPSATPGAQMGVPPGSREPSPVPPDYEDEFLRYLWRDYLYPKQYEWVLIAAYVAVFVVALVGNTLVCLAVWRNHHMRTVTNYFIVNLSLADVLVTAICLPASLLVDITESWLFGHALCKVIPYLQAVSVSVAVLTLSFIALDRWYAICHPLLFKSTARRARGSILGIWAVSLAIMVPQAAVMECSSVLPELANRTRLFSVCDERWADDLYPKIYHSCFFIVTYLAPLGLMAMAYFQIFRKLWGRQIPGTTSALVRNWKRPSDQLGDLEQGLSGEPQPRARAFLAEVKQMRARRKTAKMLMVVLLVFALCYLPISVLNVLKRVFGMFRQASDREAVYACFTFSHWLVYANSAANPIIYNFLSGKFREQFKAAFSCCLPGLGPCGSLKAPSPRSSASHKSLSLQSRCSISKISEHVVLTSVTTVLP
Outline: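 Antagonist mode FLIPR calcium read in CHO-OX1 and CHO-OX2 lines. Test compounds, dosed 0.1 nM-10 μM, preincubated 30 min after 37° C dye loading with 2.5 mM probenecid (calcium4 for 30 min or calcium6 for 2 h).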

CYP3A4 = target: T2, CYP3A4 (Homo sapiens, UniProt P08684); assay: Cytochrome P450 inhibition assay (midazolam hydroxylation); assay type: in vitro ADME; conditions: human, human liver microsomes, probe midazolam (hydroxylation to 1′-hydroxymidazolam), 10 μM test compound, midazolam at approximately its Km
T2 construct: pre-incubated with human liver microsomes and NADPH; from tissue; host or cells: human liver microsomes
T2 sequence (P08684 whole entry): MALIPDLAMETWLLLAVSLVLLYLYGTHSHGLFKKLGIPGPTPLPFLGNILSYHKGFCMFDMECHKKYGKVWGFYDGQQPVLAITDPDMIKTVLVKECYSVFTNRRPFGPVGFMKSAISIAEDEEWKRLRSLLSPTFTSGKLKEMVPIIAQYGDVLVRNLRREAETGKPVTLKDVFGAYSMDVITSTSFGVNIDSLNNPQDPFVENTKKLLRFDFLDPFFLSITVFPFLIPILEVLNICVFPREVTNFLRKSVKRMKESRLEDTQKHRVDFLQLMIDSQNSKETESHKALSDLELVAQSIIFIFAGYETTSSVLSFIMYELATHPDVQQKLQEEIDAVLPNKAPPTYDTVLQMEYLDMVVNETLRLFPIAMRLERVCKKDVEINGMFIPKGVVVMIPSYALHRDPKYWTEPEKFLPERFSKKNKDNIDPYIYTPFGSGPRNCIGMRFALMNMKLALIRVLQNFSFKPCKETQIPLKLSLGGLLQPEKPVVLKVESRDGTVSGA
Outline: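 Percent inhibition of midazolam 1′-hydroxylation by 10 μM compound was measured, midazolam dosed at about Km. Time-dependent inhibition was probed by a 30 min preincubation of compound with human liver microsomes and NADPH ahead of substrate, compared against samples without preincubation.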

[1] = CHO-OX1 cells, [Ca2+]i by FLIPR, antagonist dose-range 0.1 nM-10 μM, EC90 of OXA, read-out: OX1

SMILES	IC50 (OX1; [1]) [µM]	IC50 (OX1; Table 6, racemate vs enantiomers, read-out: OX1 IC50) [µM]	inhibition at 10 µM (CYP3A4) [%]	IC50 (OX1; OX1 (μM)) [µM]
Cc1nc(C(=O)N2CCC[C@H](C)[C@@H]2CNc2ccc(C(F)(F)F)cn2)c(-c2ccc(F)cc2)s1 [Example A43, (5-(4-Fluorophenyl)-2-methylthiazol-4-yl)((2R,3S)-3-methyl-2-(((5-(trifluoromethyl)pyridin-2-yl)amino)methyl)piperidin-1-yl)methanone]	0.67	0.67	55	
C[C@@H]1CCCN(C(=O)c2c(F)cccc2-n2nccn2)[C@@H]1CNc1ncc(Cl)cn1 [Example A260, ((2S,3R)-2-(((5-Chloropyrimidin-2-yl)amino)methyl)-3-methylpiperidin-1-yl)(2-fluoro-6-(2H-1,2,3-triazol-2-yl)phenyl)methanone]	0.085		53	
Cc1ccc(-c2ncccn2)c(C(=O)N2CCC[C@@H](C)[C@H]2CNc2ccc(C(F)(F)F)nn2)n1 [Example A185, ((2S,3R)-3-Methyl-2-(((6-(trifluoromethyl)pyridazin-3-yl)amino)methyl)piperidin-1-yl)(6-methyl-3-(pyrimidin-2-yl)pyridin-2-yl)methanone]	0.046		33	
Cc1ccc(-c2ncccn2)c(C(=O)N2CCC[C@@H](C)[C@H]2CNc2nc3cc(Cl)ccc3o2)c1 [Example A205, ((2S,3R)-2-(((5-Chlorobenzo[d]oxazol-2-yl)amino)methyl)-3-methylpiperidin-1-yl)(5-methyl-2-(pyrimidin-2-yl)phenyl)methanone]	0.011		72	
C[C@@H]1CCCN(C(=O)c2c(F)cccc2-c2ncccn2)[C@@H]1CNc1ncc(Cl)cn1 [Example A239, ((2S,3R)-2-(((5-Chloropyrimidin-2-yl)amino)methyl)-3-methylpiperidin-1-yl)(2-fluoro-6-(pyrimidin-2-yl)phenyl)methanone]	0.083		50	
C[C@@H]1CCCN(C(=O)c2cc(F)ccc2-c2ncccn2)[C@@H]1CNc1ncc(C(F)(F)F)cn1 [Example A227, (5-Fluoro-2-(pyrimidin-2-yl)phenyl)((2S,3R)-3-methyl-2-(((5-(trifluoromethyl)pyrimidin-2-yl)amino)methyl)piperidin-1-yl)methanone]	0.002		59	
Cc1ccc(-n2nccn2)c(C(=O)N2CCC[C@@H](C)[C@H]2CNc2ncc(C(F)(F)F)cc2F)n1 [Example A188, ((2S,3R)-2-(((3-Fluoro-5-(trifluoromethyl)pyridin-2-yl)amino)methyl)-3-methylpiperidin-1-yl)(6-methyl-3-(2H-1,2,3-triazol-2-yl)pyridin-2-yl)methanone]	0.001		59	
Cc1ccc(C(=O)N2CCC[C@@H](C)[C@H]2CNc2ccc(C(F)(F)F)cn2)c(-c2ncccn2)c1F [Example A358, (3-fluoro-4-methyl-2-(pyrimidin-2-yl)phenyl)((2S,3R)-3-methyl-2-(((5-(trifluoromethyl)pyridin-2-yl)amino)methyl)piperidin-1-yl)methanone]	0.005		83	
COc1cccnc1NC[C@@H]1[C@H](C)CCCN1C(=O)c1cc(C)ccc1-n1nccn1 [Example A98, ((2S,3R)-2-(((3-Methoxypyridin-2-yl)amino)methyl)-3-methylpiperidin-1-yl)(5-methyl-2-(2H-1,2,3-triazol-2-yl)phenyl)methanone]	0.27		48	
C[C@@H]1CCCN(C(=O)c2c(F)cccc2-n2nccn2)[C@@H]1CNc1ncc(C(F)(F)F)cn1 [Example A259, (2-Fluoro-6-(2H-1,2,3-triazol-2-yl)phenyl)((2S,3R)-3-methyl-2-(((5-(trifluoromethyl)pyrimidin-2-yl)amino)methyl)piperidin-1-yl)methanone]	0.009		37	
Cc1ccc(-n2nccn2)c(C(=O)N2CCC[C@@H](C)[C@H]2CNc2nc3cc(F)ccc3o2)c1 [Example A129, ((2S,3R)-2-(((5-Fluorobenzo[d]oxazol-2-yl)amino)methyl)-3-methylpiperidin-1-yl)(5-methyl-2-(2H-1,2,3-triazol-2-yl)phenyl)methanone]	0.003		64	
Cc1ccc(-n2nccn2)c(C(=O)N2CCC[C@@H](C)[C@H]2CNc2ncccc2C(F)(F)F)c1 [Example A88, ((2S,3R)-3-Methyl-2-(((3-(trifluoromethyl)pyridin-2-yl)amino)methyl)piperidin-1-yl)(5-methyl-2-(2H-1,2,3-triazol-2-yl)phenyl)methanone]	0.6		75	
Cc1ccc(-c2ncccn2)c(C(=O)N2CCC[C@@H](C)[C@H]2CNc2nnc(C(F)(F)F)s2)n1 [Example A187, ((2S,3R)-3-Methyl-2-(((5-(trifluoromethyl)-1,3,4-thiadiazol-2-yl)amino)methyl)piperidin-1-yl)(6-methyl-3-(pyrimidin-2-yl)pyridin-2-yl)methanone]	0.2		40	
Cc1cncc(-c2ccc(C)cc2C(=O)N2CCC[C@@H](C)[C@H]2CNc2ccc(C(F)(F)F)cn2)c1 [Example A5, ((2S,3R)-3-Methyl-2-(((5-(trifluoromethyl)pyridin-2-yl)amino)methyl)piperidin-1-yl)(5-methyl-2-(5-methylpyridin-3-yl)phenyl)methanone]	0.006		98	
Cc1ccc(-c2ccc(C(F)(F)F)cn2)c(C(=O)N2CCC[C@@H](C)[C@H]2CNc2ccc(Cl)cn2)c1 [Example A158, ((2S,3R)-2-(((5-Chloropyridin-2-yl)amino)methyl)-3-methylpiperidin-1-yl)(5-methyl-2-(5-(trifluoromethyl)pyridin-2-yl)phenyl)methanone]	0.22		83	
Cc1ccc(-n2ncc(C)n2)c(C(=O)N2CCC[C@@H](C)[C@H]2CNc2nc3cc(Cl)ccc3o2)c1 [Example A116, ((2S,3R)-2-(((5-Chlorobenzo[d]oxazol-2-yl)amino)methyl)-3-methylpiperidin-1-yl)(5-methyl-2-(4-methyl-2H-1,2,3-triazol-2-yl)phenyl)methanone]	0.004		75	
C[C@@H]1CCCN(C(=O)c2cc(F)ccc2-n2nccn2)[C@@H]1CNc1ccc(C(F)(F)F)cn1 [Example A310]			75	0.003
Cc1ccc(-n2ccc(C)n2)c(C(=O)N2CCC[C@@H](C)[C@H]2CNc2ccc(C#N)cn2)c1 [Example A133, 6-((((2S,3R)-3-Methyl-1-(5-methyl-2-(3-methyl-1H-pyrazol-1-yl)benzoyl)piperidin-2-yl)methyl)amino)nicotinonitrile]	0.093		89	
C[C@@H]1CCCN(C(=O)c2ccccc2-n2nccn2)[C@@H]1CNc1ncc(C(F)(F)F)cn1 [Example A313, (2-(2H-1,2,3-Triazol-2-yl)phenyl)((2S,3R)-3-methyl-2-(((5-(trifluoromethyl)pyrimidin-2-yl)amino)methyl)piperidin-1-yl)methanone]	0.005		60	
Cc1ccc(-c2ncccn2)c(C(=O)N2CCC[C@@H](C)[C@H]2CNc2nc3ccccc3o2)c1 [Example A204, ((2S,3R)-2-((Benzo[d]oxazol-2-ylamino)methyl)-3-methylpiperidin-1-yl)(5-methyl-2-(pyrimidin-2-yl)phenyl)methanone]	0.003		60	
Cc1ccc(-c2ccn(C)n2)c(C(=O)N2CCC[C@@H](C)[C@H]2CNc2ccc(C(F)(F)F)cn2)c1 [Example A18, ((2S,3R)-3-Methyl-2-(((5-(trifluoromethyl)pyridin-2-yl)amino)methyl)piperidin-1-yl)(5-methyl-2-(1-methyl-1H-pyrazol-3-yl)phenyl)methanone]	0.007		95	
Cc1ccc(-c2ccn(C)c2)c(C(=O)N2CCC[C@@H](C)[C@H]2CNc2ccc(C(F)(F)F)cn2)c1 [Example A6, ((2S,3R)-3-Methyl-2-(((5-(trifluoromethyl)pyridin-2-yl)amino)methyl)piperidin-1-yl)(5-methyl-2-(1-methyl-1H-pyrrol-3-yl)phenyl)methanone]	0.013		85	
Cc1ccc(-n2nccn2)c(C(=O)N2CCC[C@@H](C)[C@H]2CNc2ccc(C#N)cn2)n1 [Example A189, 6-((((2S,3R)-3-Methyl-1-(6-methyl-3-(2H-1,2,3-triazol-2-yl)picolinoyl)piperidin-2-yl)methyl)amino)nicotinonitrile]	0.12		37	
Cc1ccc(-c2cnccn2)c(C(=O)N2CCC[C@@H](C)[C@H]2CNc2ccc(C(F)(F)F)cn2)c1 [Example A19, ((2S,3R)-3-Methyl-2-(((5-(trifluoromethyl)pyridin-2-yl)amino)methyl)piperidin-1-yl)(5-methyl-2-(pyrazin-2-yl)phenyl)methanone]	0.004		96	
